The text below walks through data of patent publication US20240254096A1, “ULTRAVIOLET AND VISIBLE RADIATION ABSORBING COMPOUNDS” (ELKIMIA INC., priority 2021, published 2024).

Values joined by “and” are separate entries in the source; they are usually repeats but may differ in a detail not shown here. Identical values can stand only once.

This data set can be described thus: Thermal stability by Thermogravimetric Analysis (TGA). In kind it is physicochemical. The note with it: for T onset: by intersection points of tangents. The method, then:
Briefly, the residual weight (%) of the compounds was measured at different temperatures, including 100° C. for water boiling, and other temperatures corresponding to extrusion processes, and the T onset (° C.) by intersection points of tangents was checked. The results are represented in Table 16 below, and in FIG. 6.

The compound `CCOC(=O)CNC1=C/C(=N/c2ccccc2)CC(C)(C)C1` [Formula 46] returned a T onset of 215.2 C. For the same compound, the “Residual weight % at different temperatures” value (100 (° C.)) came out at 99.4 w %. Besides, for the setting “190 (° C.)”, the “Residual weight % at different temperatures” value came to 99.1 w %. In addition, the “Residual weight % at different temperatures” value (210 (° C.)) was 98.4 w %. Besides, the “Residual weight % at different temperatures” value (250 (° C.)) was 52.4 w %.

For the compound `CCOC(=O)CNC1=C/C(=N/c2ccc(Nc3ccccc3)cc2)CC(C)(C)C1` [Formula 47], the T onset worked out at 226.0 C. The “Residual weight % at different temperatures” value (100 (° C.)) came to 99.5 w %. Further, the “Residual weight % at different temperatures” value (190 (° C.)) turned out to be 99.2 w %. Further, the “Residual weight % at different temperatures” value (210 (° C.)) was determined as 99.0 w %. For the same compound, the “Residual weight % at different temperatures” value (250 (° C.)) is 79.5 w %.

On to `CCOC(=O)CNC1=C/C(=N/c2ccc(N3CCOCC3)cc2)CC(C)(C)C1` [Formula 48], for which the T onset worked out at 215.7 C. The “Residual weight % at different temperatures” value (100 (° C.)) is 99.2 w %. Further, the “Residual weight % at different temperatures” value (190 (° C.)) worked out at 98.8 w %. For the setting “210 (° C.)”, the “Residual weight % at different temperatures” value turned out to be 97.8 w %. Further, the “Residual weight % at different temperatures” value (250 (° C.)) was 72.9 w %.

`CCOC(=O)CNC1=C/C(=N/c2ccc(OCc3ccccc3)cc2)CC(C)(C)C1` [Formula 49]: the T onset was determined as 215.3 C. Also, the “Residual weight % at different temperatures” value (100 (° C.)) turned out to be 99.3 w %. Besides, the “Residual weight % at different temperatures” value (190 (° C.)) is listed as 97.8 w %. Further, the “Residual weight % at different temperatures” value (210 (° C.)) turned out to be 97.2 w %. Further, for the setting “250 (° C.)”, the “Residual weight % at different temperatures” value was 70.2 w %.

Take `CCOC(=O)CNC1=C/C(=N/c2ccc(Oc3ccccc3)cc2)CC(C)(C)C1` [Formula 50]: the T onset came to 229.5 C. In addition, the “Residual weight % at different temperatures” value (100 (° C.)) was determined as 99.2 w %. Where the note is “190 (° C.)”, the “Residual weight % at different temperatures” value turned out to be 98.1 w %. In addition, the “Residual weight % at different temperatures” value (210 (° C.)) was 97.9 w %. For the same compound, the “Residual weight % at different temperatures” value (250 (° C.)) worked out at 69.3 w %.

Regarding `CCOC(=O)CNC1=C/C(=N/c2ccc(C(C)=O)cc2)CC(C)(C)C1` [Formula 51], the T onset stood at 188.0 C. Also, the “Residual weight % at different temperatures” value (100 (° C.)) stood at 99.5 w %. The “Residual weight % at different temperatures” value (190 (° C.)) came to 96.1 w %. Also, where the note is “210 (° C.)”, the “Residual weight % at different temperatures” value came to 85.8 w %. Besides, the “Residual weight % at different temperatures” value (250 (° C.)) came out at 65.1 w %.

As to `CCOC(=O)CNC1=C/C(=N/c2ccc(N(C)C)cc2)CC(C)(C)C1` [Formula 52], the T onset came out at 199.1 C. In addition, the “Residual weight % at different temperatures” value (100 (° C.)) was found to be 95.9 w %. The “Residual weight % at different temperatures” value (190 (° C.)) is reported as 92.4 w %. In addition, where the note is “210 (° C.)”, the “Residual weight % at different temperatures” value is on record as 86.0 w %. Further, the “Residual weight % at different temperatures” value (250 (° C.)) amounted to 63.2 w %.

The compound `CCOC(=O)CNC1=C/C(=N/c2ccc(OC(F)(F)F)cc2)CC(C)(C)C1` [Formula 53] returned a T onset of 199.3 C. Also, under “100 (° C.)”, the “Residual weight % at different temperatures” value was found to be 99.5 w %. For the same compound, the “Residual weight % at different temperatures” value (190 (° C.)) worked out at 98.6 w %. Also, under “210 (° C.)”, the “Residual weight % at different temperatures” value was 86.3 w %. Besides, the “Residual weight % at different temperatures” value (250 (° C.)) amounted to 40.5 w %.

`CCOC(=O)CNC1=C/C(=N/c2ccc(NC(=O)OC(C)(C)C)cc2)CC(C)(C)C1` [Formula 54] showed a T onset of 176.7 C. In addition, for the setting “100 (° C.)”, the “Residual weight % at different temperatures” value was found to be 98.0 w %. Further, the “Residual weight % at different temperatures” value (190 (° C.)) came to 84.0 w %. The “Residual weight % at different temperatures” value (210 (° C.)) amounted to 72.7 w %. The “Residual weight % at different temperatures” value (250 (° C.)) was 60.1 w %.

Compound `CCOC(=O)CNC1=C/C(=N/c2ccc(Cn3cncn3)cc2)CC(C)(C)C1` [Formula 55] gave a T onset of 205.0 C. For the same compound, the “Residual weight % at different temperatures” value (100 (° C.)) is on record as 97.8 w %. In addition, the “Residual weight % at different temperatures” value (190 (° C.)) is 96.4 w %. For the same compound, the “Residual weight % at different temperatures” value (210 (° C.)) was 92.2 w %. Further, the “Residual weight % at different temperatures” value (250 (° C.)) is given as 71.2 w %.

Compound `CCOC(=O)CNC1=C/C(=N/c2ccc3c(c2)OCCO3)CC(C)(C)C1` [Formula 56] had a T onset of 207.6 C. In addition, under “100 (° C.)”, the “Residual weight % at different temperatures” value was determined as 99.4 w %. Also, where the note is “190 (° C.)”, the “Residual weight % at different temperatures” value worked out at 98.9 w %. Where the note is “210 (° C.)”, the “Residual weight % at different temperatures” value came out at 94.3 w %. Further, the “Residual weight % at different temperatures” value (250 (° C.)) worked out at 68.0 w %.

`CCOC(=O)C1CSC2=C(CC(C)(C)C/C2=N\c2ccc(OCc3ccccc3)cc2)N1` (centres unmarked) [Formula 60] showed a T onset of 168.9 C. Besides, the “Residual weight % at different temperatures” value (100 (° C.)) is reported as 97.8 w %. In addition, the “Residual weight % at different temperatures” value (190 (° C.)) was 85.6 w %. Moreover, the “Residual weight % at different temperatures” value (210 (° C.)) is given as 77.0 w %. Also, the “Residual weight % at different temperatures” value (250 (° C.)) is 58.2 w %.

As to `CCOC(=O)C1CSC2=C(CC(C)(C)C/C2=N\c2ccc(Oc3ccccc3)cc2)N1` (centres unmarked) [Formula 61], the T onset was found to be 205.0 C. Also, the “Residual weight % at different temperatures” value (100 (° C.)) was found to be 99.0 w %. Besides, the “Residual weight % at different temperatures” value (190 (° C.)) was 98.2 w %. Also, the “Residual weight % at different temperatures” value (210 (° C.)) is on record as 92.6 w %. Also, the “Residual weight % at different temperatures” value (250 (° C.)) is listed as 62.1 w %.

`CCOC(=O)C1CSC2=C(CC(C)(C)C/C2=N\c2ccc(N3CCOCC3)cc2)N1` (centres unmarked) [Formula 62] yielded a T onset of 186.1 C. In addition, where the note is “100 (° C.)”, the “Residual weight % at different temperatures” value turned out to be 94.5 w %. For the same compound, for the setting “190 (° C.)”, the “Residual weight % at different temperatures” value is reported as 85.0 w %. In addition, the “Residual weight % at different temperatures” value (210 (° C.)) came out at 75.8 w %. The “Residual weight % at different temperatures” value (250 (° C.)) was found to be 54.0 w %.

On to `C#Cc1ccc(/N=C2\CC(C)(C)CC3=C2SCC(C(=O)OCC)N3)cc1` (centres unmarked) [Formula 63], for which the T onset turned out to be 197.4 C. The “Residual weight % at different temperatures” value (100 (° C.)) was found to be 98.7 w %. Moreover, where the note is “190 (° C.)”, the “Residual weight % at different temperatures” value came out at 97.3 w %. For the same compound, under “210 (° C.)”, the “Residual weight % at different temperatures” value was found to be 88.4 w %. Further, the “Residual weight % at different temperatures” value (250 (° C.)) is 68.0 w %.

`CCOC(=O)C1CSC2=C(CC(C)(C)C/C2=N\c2ccc(Nc3ccccc3)cc2)N1` (centres unmarked) [Formula 64]: the T onset came to 187.0 C. Under “100 (° C.)”, the “Residual weight % at different temperatures” value is reported as 97.2 w %. The “Residual weight % at different temperatures” value (190 (° C.)) was found to be 87.7 w %. Besides, the “Residual weight % at different temperatures” value (210 (° C.)) was determined as 80.3 w %. For the same compound, for the setting “250 (° C.)”, the “Residual weight % at different temperatures” value is 60.9 w %.

On to `CCOC(=O)C1CSC2=C(CC(C)(C)C/C2=N\c2ccc(Cn3cncn3)cc2)N1` (centres unmarked) [Formula 65], for which the T onset came out at 200.2 C. In addition, the “Residual weight % at different temperatures” value (100 (° C.)) stood at 95.3 w %. The “Residual weight % at different temperatures” value (190 (° C.)) was 91.7 w %. Also, the “Residual weight % at different temperatures” value (210 (° C.)) was 89.3 w %. The “Residual weight % at different temperatures” value (250 (° C.)) stood at 80.3 w %.

Compound `COC(=O)C(Cc1ccccc1)NC1=C/C(=N/c2ccc(F)cc2)CC(C)(C)C1` (centres unmarked) [Formula 67] came in with a T onset of 190.5 C. Further, under “100 (° C.)”, the “Residual weight % at different temperatures” value stood at 99.4 w %. The “Residual weight % at different temperatures” value (190 (° C.)) was 92.9 w %. Besides, under “210 (° C.)”, the “Residual weight % at different temperatures” value amounted to 82.0 w %. Also, for the setting “250 (° C.)”, the “Residual weight % at different temperatures” value is on record as 68.1 w %.

Compound `COC(=O)C(Cc1ccccc1)NC1=C/C(=N/c2ccc(OC)cc2)CC(C)(C)C1` (centres unmarked) [Formula 68] came in with a T onset of 197.2 C. Besides, the “Residual weight % at different temperatures” value (100 (° C.)) is 97.9 w %. The “Residual weight % at different temperatures” value (190 (° C.)) came to 93.6 w %. For the same compound, for the setting “210 (° C.)”, the “Residual weight % at different temperatures” value is listed as 87.3 w %. In addition, the “Residual weight % at different temperatures” value (250 (° C.)) was determined as 75.0 w %.

Take `CCCCCCCCOc1ccc(/N=C2/C=C(NC(Cc3ccccc3)C(=O)OC)CC(C)(C)C2)cc1` (centres unmarked) [Formula 69]: the T onset stood at 193.6 C. Moreover, the “Residual weight % at different temperatures” value (100 (° C.)) is 99.3 w %. Besides, for the setting “190 (° C.)”, the “Residual weight % at different temperatures” value worked out at 95.2 w %. Moreover, the “Residual weight % at different temperatures” value (210 (° C.)) came out at 88.0 w %. Moreover, the “Residual weight % at different temperatures” value (250 (° C.)) is given as 82.5 w %.

For the compound `C#Cc1ccc(NC2C=C(NCC(=O)OCC)CC(C)(C)C2)cc1` (centres unmarked) [Formula 76], the T onset was 256.0 C and 248.2 C. Besides, the “Residual weight % at different temperatures” value (100 (° C.)) is 99.6 w % and 99.5 w %. Moreover, the “Residual weight % at different temperatures” value (190 (° C.)) is 99.4 w % and 99.2 w %. Also, for the setting “210 (° C.)”, the “Residual weight % at different temperatures” value is 99.3 w % and 99.0 w %. Moreover, the “Residual weight % at different temperatures” value (250 (° C.)) was 97.7 w % and 91.7 w %.

In the case of `CCOC(=O)C1CSC2=C(CC(C)(C)CC2Nc2ccccc2)N1` (centres unmarked) [Formula 77], the T onset came out at 187.4 C. Moreover, the “Residual weight % at different temperatures” value (100 (° C.)) is listed as 99.2 w %. In addition, where the note is “190 (° C.)”, the “Residual weight % at different temperatures” value is reported as 91.2 w %. Under “210 (° C.)”, the “Residual weight % at different temperatures” value is 83.8 w %. Besides, the “Residual weight % at different temperatures” value (250 (° C.)) stood at 66.4 w %.
